Data published in patent US20240174618A1, “SUBSTITUTED (2-HETEROARYLOXYPHENYL)SULFONATES, SALTS THEREOF AND THEIR USE AS HERBICIDAL AGENTS” (Bayer Aktiengesellschaft, priority 2021, published 2024).

Assays:
Format in all cases: in vivo
[1] = test system: Setaria viridis (SETVI); assay: E. Herbicidal post-emergence efficacy, SETVI
Outline: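 Visual scoring against untreated plants was done roughly 3 weeks after spraying (0% = no effect, 100% = plants dead). Spray application at 320 g/ha or lower, 600 l/ha water with 0.5% additive, was made onto green parts of one-leaf-stage greenhouse plants grown 2-3 weeks in sandy loam.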

[2] = test system: Lolium rigidum (LOLRI); assay: C. Herbicidal pre-emergence efficacy, LOLRI; conditions: scored after about 3 weeks
Outline: (§1)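 Pre-emergence test: formulated compounds sprayed as aqueous suspension or emulsion with 0.5% additive at 600 l/ha onto soil covering sown seeds, at rates corresponding to 320 g/ha or less. After about 3 weeks in greenhouse, efficacy scored visually as percent versus untreated controls (100% = plants dead).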

[3] = test system: Matricaria inodora (MATIN); assay: A. Herbicidal pre-emergence efficacy, MATIN
Outline: (§2)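 Applied before emergence onto covering soil at rates of 1280 g/ha or less, using 600 L/ha spray water with 0.5% additive. Scoring: visual % efficacy after ~3 weeks, greenhouse.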

[4] = test system: Setaria viridis (SETVI); assay: C. Herbicidal pre-emergence efficacy, SETVI; conditions: scored after about 3 weeks
Outline: as §1

[5] = test system: Alopecurus myosuroides (ALOMY); assay: C. Herbicidal pre-emergence efficacy, ALOMY; conditions: scored after about 3 weeks
Outline: as §1

[6] = test system: Abutilon theophrasti (ABUTH); assay: B. Herbicidal post-emergence efficacy, ABUTH; conditions: rated visually after about 3 weeks
Outline: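 Weeds grown in sandy loam in greenhouse and sprayed at the one-leaf stage, 2–3 weeks after sowing, with WP or EC formulations plus 0.5% additive at 600 L/ha water. Injury rated visually versus untreated controls after about 3 weeks (100% = dead, 0% = like control); rates up to 1280 g/ha.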

[7] = test system: Stellaria media (STEME); assay: A. Herbicidal pre-emergence efficacy, STEME
Outline: as §2

[8] = test system: Triticum aestivum (TRZAS); assay: F. Post-emergence effect on useful plants, TRZAS; conditions: useful plant
Outline: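 Visual efficacy rating versus untreated plants, from 0% (no effect) to 100% (plants died), made about 3 weeks after post-emergence treatment. Formulated compounds (WP or EC, 0.5% additive, 600 l/ha water) were sprayed onto greenhouse-grown crops at the one-leaf stage, 2-3 weeks after sowing.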

[9] = 320 g/ha, scored visually after about 3 weeks vs untreated controls
[10] = pre-emergence, dosage 1280 g/ha

SMILES | Post-emergence efficacy against SETVI in % ([1]; application rate 80 g/ha) | Post-emergence efficacy against SETVI in % ([1]; application rate 320 g/ha) | Pre-emergence efficacy against LOLRI ([2]; 320 g/ha) | Pre-emergence efficacy against MATIN [3, 9] | Pre-emergence efficacy against MATIN [3, 10] | Pre-emergence efficacy against SETVI ([4]; 80 g/ha) | Pre-emergence efficacy against SETVI ([4]; 320 g/ha) | Pre-emergence efficacy against ALOMY ([5]; 80 g/ha) | Pre-emergence efficacy against ALOMY ([5]; 320 g/ha) | Post-emergence efficacy against ABUTH in % ([6]; 80 g/ha) | Post-emergence efficacy against ABUTH in % ([6]; 320 g/ha) | Post-emergence efficacy against ABUTH in % ([6]; 1280 g/ha) | Pre-emergence efficacy against STEME ([7]; dosage 80 g/ha) | Pre-emergence efficacy against STEME ([7]; dosage 320 g/ha) | Pre-emergence efficacy against STEME ([7]; dosage 1280 g/ha) | Post-emergence efficacy against TRZAS in % ([8]; application rate 80 g/ha) | Pre-emergence efficacy against LOLRI ([2]; 80 g/ha) | Post-emergence efficacy against TRZAS in % ([8]; application rate 320 g/ha)
O=S(=O)(CCCCl)Oc1ccccc1Oc1ncc(F)cn1 [Example I-5] | 90% | 100% | 80% | 90% | 100% | 90% | 100% | 90% | 100% | 90% | 100% | 100% | 90% | 100% | 100% | 20% | – | –
CCCCS(=O)(=O)Oc1ccccc1Oc1ncc(Cl)cn1 [Example I-6] | 90% | 100% | 100% | – | 100% | 90% | 100% | 80% | 90% | – | 90% | 90% | 100% | 100% | 100% | – | 80% | –
CC(C)CS(=O)(=O)Oc1ccccc1Oc1ncc(Cl)cn1 [Example I-7, [2-(5-Chloropyrimidin-2-yl)oxyphenyl] 2-methylpropane-1-sulfonate] | 90% | 100% | 90% | 100% | 100% | 100% | 100% | 90% | 100% | – | 90% | 90% | 90% | 90% | 100% | 20% | – | –
O=S(=O)(CCCC(F)(F)F)Oc1ccccc1Oc1ncc(Cl)cn1 [Example I-10] | 100% | 100% | 100% | 100% | 100% | 100% | 100% | 100% | 100% | 90% | 90% | 90% | 100% | 100% | 100% | – | 90% | –
O=S(=O)(CCCCl)Oc1c(F)cccc1Oc1ncc(Cl)cn1 [Example I-14] | 100% | 100% | 100% | – | 100% | 100% | 100% | 90% | 100% | 90% | 100% | 100% | 100% | 100% | 100% | 20% | – | –
O=S(=O)(CCCC(F)(F)F)Oc1c(Cl)cccc1Oc1ncc(Cl)cn1 [Example I-39] | 100% | 100% | 100% | 100% | 100% | 100% | 100% | – | 100% | – | – | 90% | – | 100% | 100% | 0% | – | 20%
O=S(=O)(CCC(F)(F)F)Oc1c(F)cccc1Oc1ncc(Br)cn1 [Example I-40] | 100% | 100% | 100% | 100% | 100% | 100% | 100% | – | 100% | – | – | – | – | 100% | 100% | 10% | – | 20%
O=S(=O)(CCCC(F)(F)F)Oc1c(F)cccc1Oc1ncc(F)cn1 [Example I-42] | 100% | 100% | 100% | 90% | 100% | 100% | 100% | 100% | 100% | 100% | 100% | 100% | 100% | 100% | 100% | – | 100% | –
Cc1cccc(Oc2ncc(F)cn2)c1OS(=O)(=O)CCCC(F)(F)F [Example I-46] | – | 80% | 100% | – | 90% | 100% | 100% | – | 100% | – | 100% | 100% | 90% | 100% | 100% | 0% | – | 10%
O=S(=O)(CCC(F)(F)F)Oc1c(F)cccc1Oc1ncc(F)cn1 [Example I-47] | – | 100% | 100% | 100% | 100% | 100% | 100% | 100% | 100% | 90% | 100% | 100% | 100% | 100% | 100% | 0% | 90% | –
O=S(=O)(CCC(F)(F)F)Oc1c(F)cccc1Oc1ncc(Cl)cn1 [Example I-48] | 100% | 100% | 100% | 100% | 100% | 100% | 100% | 100% | 100% | 90% | 90% | 90% | 90% | 100% | 100% | 10% | 90% | –
O=S(=O)(CCCC(F)(F)F)Oc1c(F)cccc1Oc1ncc(Cl)cn1 [Example I-49] | 100% | 100% | 90% | 100% | 100% | 100% | 100% | 100% | 100% | 90% | 90% | 90% | 100% | 100% | 100% | 20% | 80% | –
O=S(=O)(CC1CC(F)(F)C1)Oc1c(F)cccc1Oc1ncc(Cl)cn1 [Example I-53] | 100% | 100% | 100% | – | 100% | 100% | 100% | 90% | 100% | 90% | 90% | 90% | 100% | 100% | 100% | – | – | –
O=S(=O)(CCCC(F)F)Oc1c(F)cccc1Oc1ncc(Cl)cn1 [Example I-56] | 80% | 100% | 100% | – | 100% | 100% | 100% | 100% | 100% | 90% | 90% | 90% | 100% | 100% | 100% | 10% | 100% | –
